From PubChem BioAssay (NCI)
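Cells were grown in 96-well plates and exposed to each compound for 48 hours at five concentrations; endpoints were interpolated linearly between bracketing concentrations, or set to the highest concentration if not reached. TGI marks complete inhibition of growth.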

Key:
Assay in all cases: inhibition of tumour cell growth, NCI panel, 48 h
HOP-62 NSCLC = tested on: HOP-62 NSCLC
CAKI-1 renal = tested on: CAKI-1 renal
HCC-2998 colon = tested on: HCC-2998 colon
BT-549 breast = tested on: BT-549 breast
SF-295 CNS = tested on: SF-295 CNS
SK-MEL-2 melanoma = tested on: SK-MEL-2 melanoma
DU-145 prostate = tested on: DU-145 prostate
MDA-N = tested on: MDA-N
EKVX NSCLC = tested on: EKVX NSCLC
UACC-257 melanoma = tested on: UACC-257 melanoma
NCI-H23 lung = tested on: NCI-H23 lung

SMILES: Cc1ccc2c(c1)C(=S)N1CSCC1c1nncn1-2 (centres undefined)
- TGI (HOP-62 NSCLC): > 100 µM
- TGI (CAKI-1 renal): > 100 µM
- TGI (HCC-2998 colon): > 100 µM
- TGI (BT-549 breast): > 100 µM
- TGI (SF-295 CNS): > 100 µM
- TGI (SK-MEL-2 melanoma): > 100 µM
- TGI (DU-145 prostate): > 100 µM
- TGI (MDA-N): > 100 µM
- TGI (EKVX NSCLC): > 100 µM
- TGI (UACC-257 melanoma): > 100 µM

SMILES: Cn1c(=O)c2c(ncn2CCNC(CO)C(O)c2ccc([N+](=O)[O-])cc2)n(C)c1=O (centres undefined)
- TGI (HOP-62 NSCLC): > 100 µM
- TGI (CAKI-1 renal): > 100 µM
- TGI (BT-549 breast): > 100 µM
- TGI (SF-295 CNS): > 100 µM
- TGI (SK-MEL-2 melanoma): > 100 µM
- TGI (NCI-H23 lung): > 100 µM
- TGI (MDA-N): > 100 µM
- TGI (EKVX NSCLC): > 100 µM
- TGI (UACC-257 melanoma): > 100 µM

SMILES: CCCNC(=O)NNC(=O)c1c[nH]c2nc(C)ccc2c1=O
- TGI (HOP-62 NSCLC): > 100 µM
- TGI (CAKI-1 renal): > 100 µM
- TGI (BT-549 breast): > 100 µM
- TGI (SF-295 CNS): > 100 µM
- TGI (SK-MEL-2 melanoma): > 100 µM
- TGI (DU-145 prostate): > 100 µM
- TGI (NCI-H23 lung): > 100 µM
- TGI (MDA-N): > 100 µM
- TGI (EKVX NSCLC): > 100 µM
- TGI (UACC-257 melanoma): > 100 µM

SMILES: NC(N)=NS(=O)(=O)c1ccc(NNc2c3ccccc3nc3c(C(=O)Nc4ccc(S(=O)(=O)Nc5ncccn5)cc4)cccc23)cc1
- TGI (HOP-62 NSCLC): > 100 µM
- TGI (CAKI-1 renal): > 100 µM
- TGI (HCC-2998 colon): > 100 µM
- TGI (SF-295 CNS): > 100 µM
- TGI (SK-MEL-2 melanoma): > 100 µM
- TGI (DU-145 prostate): > 100 µM
- TGI (NCI-H23 lung): > 100 µM
- TGI (MDA-N): > 100 µM
- TGI (EKVX NSCLC): 96.2 µM
- TGI (UACC-257 melanoma): > 100 µM

SMILES: O=c1oc2ccccc2cc1-c1cc2ccccn2c1
- TGI (HOP-62 NSCLC): > 100 µM
- TGI (CAKI-1 renal): > 100 µM
- TGI (BT-549 breast): > 100 µM
- TGI (SF-295 CNS): > 100 µM
- TGI (SK-MEL-2 melanoma): > 100 µM
- TGI (DU-145 prostate): > 100 µM
- TGI (NCI-H23 lung): > 100 µM
- TGI (MDA-N): > 100 µM
- TGI (EKVX NSCLC): > 100 µM
- TGI (UACC-257 melanoma): > 100 µM

SMILES: O=C1C2SC34c5c2c2ccccc2n5CCC3CCCN14 (centres undefined)
- TGI (HOP-62 NSCLC): > 100 µM
- TGI (CAKI-1 renal): > 100 µM
- TGI (BT-549 breast): > 100 µM
- TGI (SF-295 CNS): > 100 µM
- TGI (SK-MEL-2 melanoma): > 100 µM
- TGI (DU-145 prostate): > 100 µM
- TGI (NCI-H23 lung): > 100 µM
- TGI (MDA-N): > 100 µM
- TGI (EKVX NSCLC): > 100 µM
- TGI (UACC-257 melanoma): 95.5 µM

SMILES: N=C(N)C1CN(CCc2c[nH]c3ccccc23)C(=O)NC1=O (centres undefined)
- TGI (HOP-62 NSCLC): > 100 µM
- TGI (HCC-2998 colon): > 100 µM
- TGI (BT-549 breast): > 100 µM
- TGI (SF-295 CNS): > 100 µM
- TGI (DU-145 prostate): > 100 µM
- TGI (NCI-H23 lung): > 100 µM
- TGI (MDA-N): > 100 µM
- TGI (EKVX NSCLC): > 100 µM
- TGI (UACC-257 melanoma): > 100 µM

SMILES: [N-]=[N+]=NC1(Cc2ccccc2)C(=O)c2cccc3c2N(CCC3)C1=O (centres undefined)
- TGI (HOP-62 NSCLC): > 100 µM
- TGI (CAKI-1 renal): > 100 µM
- TGI (SF-295 CNS): > 100 µM
- TGI (SK-MEL-2 melanoma): > 100 µM
- TGI (NCI-H23 lung): > 100 µM
- TGI (UACC-257 melanoma): > 100 µM

SMILES: COc1cc(C2C3C=CC=C4CC=CC(=C43)C3CCC(=O)N32)cc(OC)c1OC (centres undefined)
- TGI (HOP-62 NSCLC): > 100 µM
- TGI (SF-295 CNS): > 100 µM
- TGI (SK-MEL-2 melanoma): > 100 µM
- TGI (DU-145 prostate): > 100 µM
- TGI (EKVX NSCLC): > 100 µM
- TGI (UACC-257 melanoma): > 100 µM

SMILES: CC1(C)C(C#N)C1C1=C(N2CCOCC2)[C@]2(C)C(OC(=O)c3ccccc3)CC[C@@H]2C1 (some centres undefined)
- TGI (HOP-62 NSCLC): > 100 µM
- TGI (CAKI-1 renal): > 100 µM
- TGI (HCC-2998 colon): > 100 µM
- TGI (BT-549 breast): > 100 µM
- TGI (SF-295 CNS): > 100 µM
- TGI (NCI-H23 lung): > 100 µM
- TGI (MDA-N): > 100 µM
- TGI (EKVX NSCLC): > 100 µM
- TGI (UACC-257 melanoma): > 100 µM

SMILES: CC1(C)[C@@H](Cn2ccc(=O)[nH]c2=O)CC[C@@]1(C)CO
- TGI (HOP-62 NSCLC): > 100 µM
- TGI (CAKI-1 renal): > 100 µM
- TGI (HCC-2998 colon): > 100 µM
- TGI (SF-295 CNS): > 100 µM
- TGI (SK-MEL-2 melanoma): > 100 µM
- TGI (DU-145 prostate): > 100 µM
- TGI (MDA-N): > 100 µM
- TGI (EKVX NSCLC): > 100 µM
- TGI (UACC-257 melanoma): > 100 µM

SMILES: CC(=O)OC(OC(C)=O)c1ccc2ccc3cccc4ccc1c2c34
- TGI (CAKI-1 renal): 32.5 µM
- TGI (HCC-2998 colon): 24.5 µM
- TGI (BT-549 breast): 53.6 µM
- TGI (SF-295 CNS): 37.5 µM
- TGI (DU-145 prostate): 45.8 µM
- TGI (NCI-H23 lung): 45.1 µM
- TGI (MDA-N): 36.9 µM
- TGI (EKVX NSCLC): 80.6 µM
- TGI (UACC-257 melanoma): 34.5 µM

SMILES: Fc1ccc2c(c1)nc1n2C(c2c(Cl)cccc2Cl)SC1 (centres undefined)
- TGI (HOP-62 NSCLC): 29.2 µM
- TGI (CAKI-1 renal): 25 µM
- TGI (HCC-2998 colon): 29.9 µM
- TGI (BT-549 breast): 30.5 µM
- TGI (SF-295 CNS): 26.8 µM
- TGI (SK-MEL-2 melanoma): 29.7 µM
- TGI (DU-145 prostate): 30.6 µM
- TGI (NCI-H23 lung): 26.2 µM
- TGI (MDA-N): 24.5 µM
- TGI (UACC-257 melanoma): 34.3 µM

SMILES: COC(=O)c1c(O)ccc2c1c1c(n2Cc2cc(OC)cc(OC)c2)C(=O)c2ccccc2C1
- TGI (HOP-62 NSCLC): > 100 µM
- TGI (CAKI-1 renal): 63.7 µM
- TGI (BT-549 breast): > 100 µM
- TGI (SF-295 CNS): > 100 µM
- TGI (SK-MEL-2 melanoma): > 100 µM
- TGI (DU-145 prostate): > 100 µM
- TGI (NCI-H23 lung): > 100 µM
- TGI (MDA-N): > 100 µM
- TGI (UACC-257 melanoma): > 100 µM

SMILES: CC(=O)Nc1sc(Br)cc1S(=O)(=O)c1ccc(Cl)cc1
- TGI (CAKI-1 renal): > 100 µM
- TGI (HCC-2998 colon): 44.2 µM
- TGI (BT-549 breast): 74.8 µM
- TGI (SF-295 CNS): > 100 µM
- TGI (SK-MEL-2 melanoma): > 100 µM
- TGI (DU-145 prostate): > 100 µM
- TGI (NCI-H23 lung): > 100 µM
- TGI (MDA-N): > 100 µM
- TGI (EKVX NSCLC): > 100 µM
- TGI (UACC-257 melanoma): > 100 µM

SMILES: CN=C(n1ccnc1)n1ccnc1
- TGI (CAKI-1 renal): > 100 µM
- TGI (HCC-2998 colon): > 100 µM
- TGI (BT-549 breast): > 100 µM
- TGI (SK-MEL-2 melanoma): > 100 µM
- TGI (DU-145 prostate): > 100 µM
- TGI (NCI-H23 lung): > 100 µM
- TGI (MDA-N): > 100 µM
- TGI (EKVX NSCLC): > 100 µM
- TGI (UACC-257 melanoma): > 100 µM

SMILES: CCCC(=O)NC(NC1CCCCC1)(C(=O)OCC)C(F)(F)F (centres undefined)
- TGI (HOP-62 NSCLC): > 100 µM
- TGI (HCC-2998 colon): > 100 µM
- TGI (SF-295 CNS): > 100 µM
- TGI (SK-MEL-2 melanoma): > 100 µM
- TGI (DU-145 prostate): > 100 µM
- TGI (NCI-H23 lung): > 100 µM
- TGI (MDA-N): > 100 µM
- TGI (EKVX NSCLC): > 100 µM
- TGI (UACC-257 melanoma): > 100 µM

SMILES: c1ccc(N=C(N2CCCC2)N(CCN2CCCC2)c2ccccc2)cc1
- TGI (HOP-62 NSCLC): > 100 µM
- TGI (CAKI-1 renal): > 100 µM
- TGI (BT-549 breast): 84.5 µM
- TGI (SF-295 CNS): 35.6 µM
- TGI (SK-MEL-2 melanoma): > 100 µM
- TGI (NCI-H23 lung): > 100 µM
- TGI (EKVX NSCLC): > 100 µM
- TGI (UACC-257 melanoma): 67.6 µM

SMILES: CCOC(=O)NC(Nc1ccc(C)cc1)(C(F)(F)F)C(F)(F)F
- TGI (HOP-62 NSCLC): > 100 µM
- TGI (HCC-2998 colon): > 100 µM
- TGI (BT-549 breast): > 100 µM
- TGI (SF-295 CNS): > 100 µM
- TGI (DU-145 prostate): > 100 µM
- TGI (NCI-H23 lung): > 100 µM
- TGI (MDA-N): > 100 µM

SMILES: C=CCc1cccc2cc(C(=O)NCc3ccccc3)c(=N)oc12
- TGI (HOP-62 NSCLC): > 100 µM
- TGI (CAKI-1 renal): > 100 µM
- TGI (HCC-2998 colon): 67.8 µM
- TGI (BT-549 breast): > 100 µM
- TGI (SK-MEL-2 melanoma): 31.5 µM
- TGI (DU-145 prostate): > 100 µM
- TGI (NCI-H23 lung): > 100 µM
- TGI (MDA-N): > 100 µM
- TGI (EKVX NSCLC): > 100 µM
- TGI (UACC-257 melanoma): > 100 µM

SMILES: CC1(C)/C(=N\NC(N)=O)C2CCC1C2 (centres undefined)
- TGI (HOP-62 NSCLC): > 100 µM
- TGI (CAKI-1 renal): > 100 µM
- TGI (BT-549 breast): > 100 µM
- TGI (SF-295 CNS): > 100 µM
- TGI (SK-MEL-2 melanoma): > 100 µM
- TGI (DU-145 prostate): > 100 µM
- TGI (NCI-H23 lung): > 100 µM
- TGI (MDA-N): > 100 µM
- TGI (EKVX NSCLC): > 100 µM
- TGI (UACC-257 melanoma): > 100 µM

SMILES: N#C[C@H](c1ccccn1)c1nc2ccccc2nc1Cl
- TGI (HOP-62 NSCLC): > 100 µM
- TGI (CAKI-1 renal): > 100 µM
- TGI (HCC-2998 colon): > 100 µM
- TGI (BT-549 breast): > 100 µM
- TGI (SF-295 CNS): > 100 µM
- TGI (SK-MEL-2 melanoma): > 100 µM
- TGI (NCI-H23 lung): > 100 µM
- TGI (MDA-N): > 100 µM
- TGI (EKVX NSCLC): > 100 µM
- TGI (UACC-257 melanoma): > 100 µM
